Data as given in US12077503B2, “Substituted cyclic amides and their use as herbicides” (FMC CORPORATION, priority 2015, dated 2024).

Legend:
Assay type in all cases: in vivo
Kochia (Kochia scoparia) [1] = assay: Test A postemergence; conditions: postemergence; for Kochia plant response rating: 125 g ai/ha, visual injury rating on 0 to 100 scale (0 no effect, 100 complete control), approx. 10 d; for Plant response rating, Kochia: 500 g ai/ha, 0 to 100 scale, 0 no effect, 100 complete control
Method in brief: (§1)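 Visual injury, scored on a 0–100 scale relative to untreated controls, was recorded about 10 d after application. Treatments were a preemergence soil spray over planted seeds or a postemergence spray on plants at the one- to two-leaf stage, 2 to 10 cm tall, all in loam soil–sand blend in the greenhouse.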

[2] = test system: ragweed (common ragweed, Ambrosia elatior); assay: Test A postemergence; conditions: postemergence; for Ragweed plant response rating: 125 g ai/ha, visual injury rating on 0 to 100 scale (0 no effect, 100 complete control), approx. 10 d; for Plant response rating, Ragweed: 500 g ai/ha, 0 to 100 scale, 0 no effect, 100 complete control
Method in brief: as §1

[3] = test system: wheat (Triticum aestivum); assay: Test A postemergence; conditions: postemergence; for Wheat plant response rating: 125 g ai/ha, visual injury rating on 0 to 100 scale (0 no effect, 100 complete control), approx. 10 d; for Plant response rating, Wheat: 500 g ai/ha, 0 to 100 scale, 0 no effect, 100 complete control
Method in brief: as §1

[4] = test system: barnyardgrass (Echinochloa crus-galli); assay: Test A postemergence; conditions: postemergence; for Barnyardgrass plant response rating: 125 g ai/ha, visual injury rating on 0 to 100 scale (0 no effect, 100 complete control), approx. 10 d; for Plant response rating, Barnyardgrass: 500 g ai/ha, 0 to 100 scale, 0 no effect, 100 complete control
Method in brief: as §1

[5] = test system: ryegrass, Italian (Italian ryegrass, Lolium multiflorum); assay: Test A postemergence; conditions: postemergence; for Ryegrass, Italian plant response rating: 125 g ai/ha, visual injury rating on 0 to 100 scale (0 no effect, 100 complete control), approx. 10 d; for Plant response rating, Ryegrass, Italian: 500 g ai/ha, 0 to 100 scale, 0 no effect, 100 complete control
Method in brief: as §1

[6] = test system: pigweed (Amaranthus retroflexus); assay: Test A postemergence; conditions: postemergence; for Pigweed plant response rating: 125 g ai/ha, visual injury rating on 0 to 100 scale (0 no effect, 100 complete control), approx. 10 d; for Plant response rating, Pigweed: 500 g ai/ha, 0 to 100 scale, 0 no effect, 100 complete control
Method in brief: as §1

corn (Zea mays) = assay: Test A postemergence; conditions: postemergence; for Corn plant response rating: 125 g ai/ha, visual injury rating on 0 to 100 scale (0 no effect, 100 complete control), approx. 10 d; for Plant response rating, Corn: 500 g ai/ha, 0 to 100 scale, 0 no effect, 100 complete control
Method in brief: as §1

[7] = test system: blackgrass (Alopecurus myosuroides); assay: Test A postemergence; conditions: postemergence; for Blackgrass plant response rating: 125 g ai/ha, visual injury rating on 0 to 100 scale (0 no effect, 100 complete control), approx. 10 d; for Plant response rating, Blackgrass: 500 g ai/ha, 0 to 100 scale, 0 no effect, 100 complete control
Method in brief: as §1

[8] = test system: giant foxtail (Setaria faberii); assay: Test A postemergence; conditions: postemergence; for Foxtail, Giant plant response rating: 125 g ai/ha, visual injury rating on 0 to 100 scale (0 no effect, 100 complete control), approx. 10 d; for Plant response rating, Foxtail, Giant: 500 g ai/ha, 0 to 100 scale, 0 no effect, 100 complete control
Method in brief: as §1

[9] = test system: Galium (catchweed bedstraw, Galium aparine); assay: Test A postemergence; conditions: postemergence; for Galium plant response rating: 125 g ai/ha, visual injury rating on 0 to 100 scale (0 no effect, 100 complete control), approx. 10 d; for Plant response rating, Galium: 500 g ai/ha, 0 to 100 scale, 0 no effect, 100 complete control
Method in brief: as §1

[10] = test system: barnyardgrass (Echinochloa crus-galli); assay: Test B flooded paddy test; conditions: Flood, 250 g ai/ha; 0 to 100 scale where 0 is no effect and 100 is complete control; 13 to 15 d
Method in brief: (§2)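 Rating scale 0–100 (visual, vs untreated controls) after a 13–15 d greenhouse period; application to the flood layer, 3 cm above soil and maintained; plants at 2-leaf stage when treated.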

[11] = test system: ducksalad (Heteranthera limosa); assay: Test B flooded paddy test; conditions: Flood, 250 g ai/ha; 0 to 100 scale where 0 is no effect and 100 is complete control; 13 to 15 d
Method in brief: as §2

rice (Oryra sativa) = assay: Test B flooded paddy test; conditions: Flood, 250 g ai/ha; 0 to 100 scale where 0 is no effect and 100 is complete control; 13 to 15 d
Method in brief: as §2

[12] = test system: sedge, umbrella (small-flower umbrella sedge, Cyperus difformis); assay: Test B flooded paddy test; conditions: Flood, 250 g ai/ha; 0 to 100 scale where 0 is no effect and 100 is complete control; 13 to 15 d
Method in brief: as §2

Kochia (Kochia scoparia) [13] = assay: Test A preemergence; conditions: for Plant response rating, Kochia: 125 g ai/ha, preemergence, 0 to 100 scale (0 no effect, 100 complete control); for Kochia plant response rating (0 to 100 scale, 0 is no effect, 100 is complete control): Preemergence, 500 g ai/ha, visual injury approx. 10 d
Method in brief: as §1

[14] = test system: ragweed (common ragweed, Ambrosia elatior); assay: Test A preemergence; conditions: for Plant response rating, Ragweed: 125 g ai/ha, preemergence, 0 to 100 scale (0 no effect, 100 complete control); for Ragweed plant response rating (0 to 100 scale, 0 is no effect, 100 is complete control): Preemergence, 500 g ai/ha, visual injury approx. 10 d
Method in brief: as §1

[15] = test system: barnyardgrass (Echinochloa crus-galli); assay: Test A preemergence; conditions: for Plant response rating, Barnyardgrass: 125 g ai/ha, preemergence, 0 to 100 scale (0 no effect, 100 complete control); for Barnyardgrass plant response rating (0 to 100 scale, 0 is no effect, 100 is complete control): Preemergence, 500 g ai/ha, visual injury approx. 10 d
Method in brief: as §1

[16] = test system: ryegrass, Italian (Italian ryegrass, Lolium multiflorum); assay: Test A preemergence; conditions: for Plant response rating, Ryegrass, Italian: 125 g ai/ha, preemergence, 0 to 100 scale (0 no effect, 100 complete control); for Ryegrass, Italian plant response rating (0 to 100 scale, 0 is no effect, 100 is complete control): Preemergence, 500 g ai/ha, visual injury approx. 10 d
Method in brief: as §1

[17] = test system: pigweed (Amaranthus retroflexus); assay: Test A preemergence; conditions: for Plant response rating, Pigweed: 125 g ai/ha, preemergence, 0 to 100 scale (0 no effect, 100 complete control); for Pigweed plant response rating (0 to 100 scale, 0 is no effect, 100 is complete control): Preemergence, 500 g ai/ha, visual injury approx. 10 d
[18] = test system: giant foxtail (Setaria faberii); assay: Test A preemergence; conditions: for Plant response rating, Foxtail, Giant: 125 g ai/ha, preemergence, 0 to 100 scale (0 no effect, 100 complete control); for Foxtail, Giant plant response rating (0 to 100 scale, 0 is no effect, 100 is complete control): Preemergence, 500 g ai/ha, visual injury approx. 10 d
Method in brief: as §1

Row | SMILES | Kochia plant response rating (Kochia (Kochia scoparia) [1]) | Plant response rating, Kochia (Kochia (Kochia scoparia) [1]) | Ragweed plant response rating [2] | Plant response rating, Ragweed [2] | Wheat plant response rating [3] | Plant response rating, Wheat [3] | Barnyardgrass plant response rating [4] | Plant response rating, Barnyardgrass [4] | Ryegrass, Italian plant response rating [5] | Plant response rating, Ryegrass, Italian [5] | Pigweed plant response rating [6] | Plant response rating, Pigweed [6] | Corn plant response rating (corn (Zea mays)) | Plant response rating, Corn (corn (Zea mays)) | Blackgrass plant response rating [7] | Plant response rating, Blackgrass [7] | Foxtail, Giant plant response rating [8] | Plant response rating, Foxtail, Giant [8] | Galium plant response rating [9] | Plant response rating, Galium [9] | further results
1 | Cc1cc(C2CN(C)C(=O)C2C(=O)Nc2ccc(F)cc2F)ccc1F (stereo not drawn) [Compound 404] | 60 | 70 | 30 | 50 | 50 | 80 | 90 | 90 | 40 | 70 | 20 | 60 | 40 | 80 | 40 | 60 | 90 | 90 | 50 | 50 | Plant response rating, Barnyardgrass [10]: 80; Plant response rating, Ducksalad [11]: 100; Plant response rating, Rice (rice (Oryra sativa)): 30; Plant response rating, Sedge, Umbrella [12]: 0; Plant response rating, Kochia (Kochia (Kochia scoparia) [13]): 60; Kochia plant response rating (0 to 100 scale, 0 is no effect, 100 is complete control) (Kochia (Kochia scoparia) [13]): 70; Plant response rating, Ragweed [14]: 0; Ragweed plant response rating (0 to 100 scale, 0 is no effect, 100 is complete control) [14]: 50; Plant response rating, Barnyardgrass [15]: 90; Barnyardgrass plant response rating (0 to 100 scale, 0 is no effect, 100 is complete control) [15]: 90; Plant response rating, Ryegrass, Italian [16]: 0; Ryegrass, Italian plant response rating (0 to 100 scale, 0 is no effect, 100 is complete control) [16]: 80; Plant response rating, Pigweed [17]: 30; Pigweed plant response rating (0 to 100 scale, 0 is no effect, 100 is complete control) [17]: 60; Plant response rating, Foxtail, Giant [18]: 90; Foxtail, Giant plant response rating (0 to 100 scale, 0 is no effect, 100 is complete control) [18]: 90
2 | Cc1cc(C2CN(C)C(=O)C2C(=O)Nc2ccccc2S(C)(=O)=O)ccc1F (stereo not drawn) [Compound 405] | 40 | 50 | 0 | 50 | 60 | 80 | 90 | 90 | 30 | 60 | 40 | 50 | 30 | 80 | 50 | 60 | 80 | 80 | 60 | 60 | Plant response rating, Barnyardgrass [10]: 70; Plant response rating, Ducksalad [11]: 85; Plant response rating, Rice (rice (Oryra sativa)): 0; Plant response rating, Sedge, Umbrella [12]: 0; Plant response rating, Kochia (Kochia (Kochia scoparia) [13]): 50; Kochia plant response rating (0 to 100 scale, 0 is no effect, 100 is complete control) (Kochia (Kochia scoparia) [13]): 70; Plant response rating, Ragweed [14]: 20; Ragweed plant response rating (0 to 100 scale, 0 is no effect, 100 is complete control) [14]: 70; Plant response rating, Barnyardgrass [15]: 90; Barnyardgrass plant response rating (0 to 100 scale, 0 is no effect, 100 is complete control) [15]: 90; Plant response rating, Ryegrass, Italian [16]: 0; Ryegrass, Italian plant response rating (0 to 100 scale, 0 is no effect, 100 is complete control) [16]: 30; Plant response rating, Pigweed [17]: 50; Pigweed plant response rating (0 to 100 scale, 0 is no effect, 100 is complete control) [17]: 60; Plant response rating, Foxtail, Giant [18]: 90; Foxtail, Giant plant response rating (0 to 100 scale, 0 is no effect, 100 is complete control) [18]: 90
3 | O=C1NCC(c2ccc(Br)cc2)C1C(=O)Nc1cccc(F)c1 (stereo not drawn) [Compound 449] | 20 | 40 | 0 | 0 | 0 | 0 | 30 | 80 | 0 | 20 | 0 | 20 | 0 | 0 | 0 | 20 | 30 | 80 | 0 | 50 | Plant response rating, Barnyardgrass [10]: 40; Plant response rating, Ducksalad [11]: 98; Plant response rating, Rice (rice (Oryra sativa)): 0; Plant response rating, Sedge, Umbrella [12]: 0; Plant response rating, Kochia (Kochia (Kochia scoparia) [13]): 20; Kochia plant response rating (0 to 100 scale, 0 is no effect, 100 is complete control) (Kochia (Kochia scoparia) [13]): 40; Plant response rating, Ragweed [14]: 0; Ragweed plant response rating (0 to 100 scale, 0 is no effect, 100 is complete control) [14]: 0; Plant response rating, Barnyardgrass [15]: 50; Barnyardgrass plant response rating (0 to 100 scale, 0 is no effect, 100 is complete control) [15]: 90; Plant response rating, Ryegrass, Italian [16]: 20; Ryegrass, Italian plant response rating (0 to 100 scale, 0 is no effect, 100 is complete control) [16]: 0; Plant response rating, Pigweed [17]: 0; Pigweed plant response rating (0 to 100 scale, 0 is no effect, 100 is complete control) [17]: 20; Plant response rating, Foxtail, Giant [18]: 80; Foxtail, Giant plant response rating (0 to 100 scale, 0 is no effect, 100 is complete control) [18]: 90
